Measured values reported in article PMC8343220, “The selectivity of α‐adrenoceptor agonists for the human α1A, α1B, and α1D‐adrenoceptors” (Pharmacology Research & Perspectives, 2021).
Where two headings read alike, the source gives them in different places. Values belong to the molecule of their own block, whether it stands above or below them.

Key:
[1] = biological target: T1, human α1B‐adrenoceptor (Homo sapiens, UniProt P35368); experiment: ERK1/2‐phosphorylation (Surefire Alphascreen), CHO‐α1B cells; format: cell-based
T1 construct: expressed in transfected cells; host or cells: CHO-K1
T1 sequence (P35368 1-520): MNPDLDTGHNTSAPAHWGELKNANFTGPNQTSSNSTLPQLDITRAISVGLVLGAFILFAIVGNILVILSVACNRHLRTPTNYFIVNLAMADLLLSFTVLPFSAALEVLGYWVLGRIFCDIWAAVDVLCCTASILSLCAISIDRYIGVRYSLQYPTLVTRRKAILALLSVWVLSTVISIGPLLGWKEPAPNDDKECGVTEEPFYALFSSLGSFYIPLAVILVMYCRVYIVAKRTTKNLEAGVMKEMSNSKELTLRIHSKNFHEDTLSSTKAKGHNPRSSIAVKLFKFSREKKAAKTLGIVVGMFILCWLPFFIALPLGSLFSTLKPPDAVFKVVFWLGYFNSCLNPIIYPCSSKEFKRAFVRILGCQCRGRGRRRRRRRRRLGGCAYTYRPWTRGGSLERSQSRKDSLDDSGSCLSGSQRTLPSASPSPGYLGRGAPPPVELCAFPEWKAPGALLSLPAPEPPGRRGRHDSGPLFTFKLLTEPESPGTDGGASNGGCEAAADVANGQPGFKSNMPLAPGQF

[2] = test system: parental CHO cell line without any transfected receptors; experiment: Forskolin‐stimulated cAMP accumulation, parent CHO cells without transfected receptors; format: cell-based, Chinese hamster; details: CHO cells without transfected receptors; in presence of forskolin
[3] = test system: parental CHO cell line without any transfected receptors; experiment: Intracellular calcium mobilization, parent CHO cells without transfected receptors; format: cell-based, Chinese hamster; details: Cricetulus griseus; CHO cells without transfected receptors; response at maximum concentration used (c2), as % of ionomycin (10μM) response; mean ± s.e.m.; read-out: Intracellular calcium release % ionomycin
[4] = biological target: T1, human α1B‐adrenoceptor; experiment: Intracellular free calcium mobilization, CHO‐α1B cells; format: cell-based; details: for EC50: given as log EC50 (negative numbers)
[5] = biological target: T1, human α1B‐adrenoceptor; experiment: ^3H‐cAMP accumulation, CHO‐α1B cells; format: cell-based; details: CHO‐α1B cells
[6] = test system: parental CHO cell line without any transfected receptors; experiment: ERK1/2‐phosphorylation, parent CHO cells without transfected receptors; format: cell-based, Chinese hamster
[7] = biological target: T2, human α1A‐adrenoceptor (Homo sapiens, UniProt P35348); experiment: ^3H‐cAMP accumulation, CHO‐α1A cells; format: cell-based; details: CHO‐α1A cells; % of 10 µM forskolin response
T2 construct: expressed in transfected cells; host or cells: CHO-K1
T2 sequence (P35348 1-466): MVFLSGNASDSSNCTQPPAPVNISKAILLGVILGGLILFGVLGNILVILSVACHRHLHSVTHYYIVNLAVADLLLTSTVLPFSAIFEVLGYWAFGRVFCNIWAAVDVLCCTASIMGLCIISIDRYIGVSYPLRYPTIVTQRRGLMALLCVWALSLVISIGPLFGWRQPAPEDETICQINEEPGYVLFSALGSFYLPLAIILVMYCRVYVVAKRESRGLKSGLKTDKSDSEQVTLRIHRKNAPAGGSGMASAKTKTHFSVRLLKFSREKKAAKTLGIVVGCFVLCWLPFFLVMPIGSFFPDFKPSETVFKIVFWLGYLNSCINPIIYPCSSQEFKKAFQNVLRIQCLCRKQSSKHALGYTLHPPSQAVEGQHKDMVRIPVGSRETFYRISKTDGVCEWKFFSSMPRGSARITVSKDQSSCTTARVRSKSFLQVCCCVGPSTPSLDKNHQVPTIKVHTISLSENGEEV

[8] = biological target: T1, human α1B‐adrenoceptor; experiment: ^3H‐cAMP accumulation in the presence of 10 μM forskolin, CHO‐α1B cells; format: cell-based; details: CHO‐α1B cells; in presence of forskolin; read-out: cAMP accumulation (in presence of forskolin) Log EC50 (converted)
[9] = biological target: T3, human α1D‐adrenoceptor (full length) (Homo sapiens, UniProt P25100); experiment: ERK1/2‐phosphorylation (Surefire Alphascreen), CHO‐α1D cells; format: cell-based
T3 construct: human α1D‐adrenoceptor (full length) were used; expressed in transfected cells; host or cells: CHO-K1
T3 sequence (P25100 1-572): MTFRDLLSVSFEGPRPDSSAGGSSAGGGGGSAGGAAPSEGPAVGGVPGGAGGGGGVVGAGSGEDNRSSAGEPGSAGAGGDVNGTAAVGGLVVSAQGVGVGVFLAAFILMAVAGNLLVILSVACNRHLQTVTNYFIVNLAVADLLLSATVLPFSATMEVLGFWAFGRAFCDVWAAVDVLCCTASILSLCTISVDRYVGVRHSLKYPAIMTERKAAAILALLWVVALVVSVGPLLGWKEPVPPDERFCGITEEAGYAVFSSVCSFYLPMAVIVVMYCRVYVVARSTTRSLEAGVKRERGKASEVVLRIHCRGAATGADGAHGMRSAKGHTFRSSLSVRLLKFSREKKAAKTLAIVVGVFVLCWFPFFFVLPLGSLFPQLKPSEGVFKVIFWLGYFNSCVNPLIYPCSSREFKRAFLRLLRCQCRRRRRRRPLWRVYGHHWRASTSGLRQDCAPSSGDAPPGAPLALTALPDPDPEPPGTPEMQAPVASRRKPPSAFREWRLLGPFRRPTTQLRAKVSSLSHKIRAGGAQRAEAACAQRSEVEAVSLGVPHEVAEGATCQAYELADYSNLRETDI

[10] = biological target: T2, human α1A‐adrenoceptor; experiment: Intracellular free calcium mobilization, CHO‐α1A cells; format: cell-based
[11] = biological target: T1, human α1B‐adrenoceptor; experiment: ^3H‐prazosin whole‐cell radioligand binding, CHO‐α1B cells; details: CHO‐α1B cells
[12] = biological target: T2, human α1A‐adrenoceptor; experiment: ERK1/2‐phosphorylation (Surefire Alphascreen), CHO‐α1A cells; format: cell-based
[13] = biological target: T3, human α1D‐adrenoceptor (full length); experiment: Intracellular free calcium mobilization, CHO‐α1D cells; format: cell-based
[14] = biological target: T3, human α1D‐adrenoceptor (full length); experiment: ^3H‐prazosin whole‐cell radioligand binding, CHO‐α1D cells; details: for Kd: CHO‐α1D cells
[15] = biological target: T2, human α1A‐adrenoceptor; experiment: ^3H‐prazosin whole‐cell radioligand binding, CHO‐α1A cells
[16] = biological target: T3, human α1D‐adrenoceptor (full length); experiment: ^3H‐cAMP accumulation in the presence of 10 μM forskolin, CHO‐α1D cells; format: cell-based; details: CHO‐α1D cells
[17] = biological target: T3, human α1D‐adrenoceptor (full length); experiment: ^3H‐cAMP accumulation, CHO‐α1D cells; format: cell-based; details: cAMP accumulation without forskolin
[18] = Log KD, ^3H‐prazosin binding, whole‐cell binding (from Table 1), given as log KD (negative numbers)
[19] = 3H‐prazosin binding Log KD, whole‐cell binding (from Table 1), log values given negative

Structure (SMILES): Clc1cccc(Cl)c1N=C1NCCN1 [Clonidine]
ERK1/2‐phosphorylation % PDBu [1]: 60.6 ± 7.6% | EC50 ([1]; ERK1/2‐phosphorylation Log EC50, CHO‐α1B cells, for bi‐phasic responses the initial stimulatory part): 89.1 nM | cAMP accumulation (in presence of forskolin) Log EC50 [2]: No response | Emax [3]: 1.6 ± 1% | Intracellular calcium release % ionomycin [4]: 45.4 ± 2.1% | EC50 ([4]; Intracellular calcium release Log EC50, CHO‐α1B cells): 17 nM | cAMP accumulation % forskolin ([5]; % forskolin maximum response): 7.5 ± 0.8% | EC50 ([5]; read-out: cAMP accumulation Log EC50 (converted)): 251 nM | ERK1/2-phosphorylation % PDBu ([6]; CHO cells without transfected receptors, maximal response as % of PDBu (10μM) response, mean ± s.e.m.): No response | cAMP accumulation % forskolin [7]: 33.8 ± 3.2% | EC50 [8]: 44.7 nM | ERK1/2‐phosphorylation % PDBu at 100 µM [9]: 6.1 ± 1.3% | Intracellular calcium release % ionomycin [10]: 51.6 ± 1.2% | Kd ([11]; Log KD α1B, ^3H‐prazosin whole cell binding, given as log KD (negative), mean ± SEM): 7410 nM | Kd [11, 18]: 7410 nM | ERK1/2‐phosphorylation % PDBu [12]: 85.7 ± 4.7% | Intracellular calcium release % Ionomycin at 100 µM [13]: 8.0 ± 0.5% | Kd [14, 19]: 2570 nM | Kd ([14]; Log KD α1D, ^3H‐prazosin whole cell binding, given as log KD (negative), mean ± SEM, 'early plateau' = specific binding not fully inhibited): 2570 nM

Kd ([15]; CHO‐α1A cells, given as log KD (negative), mean ± SEM): 28800 nM | Affinity selectivity ratio α1A vs α1B ([15]; higher affinity for α1A than α1B): 11.7 fold | Affinity selectivity ratio α1A vs α1D ([15]; higher affinity for α1A than α1D): 3.8 fold | cAMP (in presence of forskolin) Fold increase ([16]; fold increase of the forskolin response): No response | cAMP (in presence of forskolin) Log EC50 ([16]; in presence of forskolin, log values given negative): No response | EC50 ([1]; CHO‐α1B cells, for bi‐phasic responses the initial stimulatory part, read-out: ERK1/2‐phosphorylation Log EC50 (converted)): 912 nM | ERK1/2‐phosphorylation % PDBu ([1]; CHO‐α1B cells, maximal response as % PDBu response, for bi‐phasic responses the initial stimulatory part): 102.0 ± 6.5% | EC50 ([4]; CHO‐α1B cells, read-out: Intracellular calcium release Log EC50 (converted)): 324 nM | Log efficacy ratio KD /EC50 ([4]; CHO‐α1B cells, intrinsic efficacy ratio, KD from binding / EC50 calcium, log): 3.02 | Intracellular calcium release % ionomycin ([4]; CHO‐α1B cells, maximal response as % of 10 µM ionomycin response): 57.9 ± 2.1% | EC50 ([9]; CHO‐α1D cells, log values given negative, read-out: ERK1/2‐phosphorylation Log EC50 (converted)): 14800 nM | ERK1/2‐phosphorylation % PDBu ([9]; CHO‐α1D cells, maximal response as % of PDBu): 16.4 ± 1.6% | Log efficacy ratio KD /EC50 ([10]; CHO‐α1A cells, binding KD and calcium EC50): 1.97 | EC50 ([10]; CHO‐α1A cells, given as log EC50 (negative), read-out: Intracellular calcium release Log EC50 (converted)): 309 nM | Intracellular calcium release % ionomycin ([10]; CHO‐α1A cells, maximal response as % of 10 µM ionomycin): 59.3 ± 4.5% | cAMP Log EC50 [17]: No response | Kd ([11]; given as log KD (negative), mean ± SEM): 339000 nM | Kd [11, 18]: 339000 nM | EC50 ([12]; CHO‐α1A cells, 2–4 min, ^a bi‐phasic: initial stimulatory part, ^b also active in parent CHO cells, read-out: ERK1/2‐phosphorylation Log EC50 (converted)): 141 nM | ERK1/2‐phosphorylation % PDBu ([12]; CHO‐α1A cells, % of 10 µM PDBu, ^a bi‐phasic: initial stimulatory part): 78.0 ± 7.2% | Log efficacy ratio KD /EC50 ([13]; CHO‐α1D cells, intrinsic efficacy ratio, binding KD / calcium EC50): 1.25 | EC50 ([13]; CHO‐α1D cells, log values given negative, read-out: Intracellular calcium release Log EC50 (converted)): 6170 nM | Intracellular calcium release % ionomycin ([13]; CHO‐α1D cells, maximal response as % of 10 µM ionomycin): 16.6 ± 2.9% | Kd [14, 19]: 110000 nM | Kd ([14]; given as log KD (negative), mean ± SEM, 'early plateau' = specific binding not fully inhibited): 110000 nM | Affinity selectivity ratio α1B vs α1D ([14]; higher affinity for α1D than α1B): 3.1 fold
Structure (SMILES): COc1nc(C)nc(Cl)c1N=C1NCCN1 [Moxonidine]
Emax at 100 µM ([6]; Cricetulus griseus, CHO, read-out: ERK1/2-phosphorylation % PDBu at 100μM): 3.1 ± 1.9%
